Values quoted from earlier work, collected in US20250041478A1, “FIBROUS POLYPEPTIDE-BASED BIOSCAFFOLD DELIVERY OF THERAPEUTICS TO NEURAL CELLS” (priority 2023, published 2025).
Counter-ions that a name gives are not always drawn.

Details: in vivo

plasma half-life: 11 to 23 h
Structure (SMILES): CN(C)c1ccc(O)c2c1C[C@H]1C[C@H]3[C@H](N(C)C)C(O)=C(C(N)=O)C(=O)[C@@]3(O)C(O)=C1C2=O [MH, minocycline hydrochloride]
